Experimental data as given in patent US20070049564A1 (Wyeth, priority 2005, published 2007).
Converted amounts (≈) assume the structure as drawn. Read-outs that look alike come from different tables or passages of the source.

Assays:
S. agalactiae GC 4564 = experiment: MIC, broth microdilution; conditions: Streptococcus agalactiae, GC4564, read-out: MINIMAL INHIBITORY CONCENTRATION MIC, pre-incubated in Water
E. coli = experiment: Range of MIC for E. coli strains; conditions: Escherichia coli
E. coli GC 2234 = experiment: MIC, broth microdilution; conditions: Escherichia coli, GC2234, read-out: MINIMAL INHIBITORY CONCENTRATION MIC, pre-incubated in Water
S. pneumoniae+ GC 4465 = experiment: MIC, broth microdilution; conditions: for MIC: Streptococcus pneumoniae
S. aureus GC 4536 = experiment: MIC, broth microdilution; conditions: for MIC: Staphylococcus aureus
S. aureus GC 6466 = experiment: MIC, broth microdilution; conditions: for MIC: Staphylococcus aureus
E. faecium GC 4556 = experiment: MIC, broth microdilution; conditions: for MIC: Enterococcus faecium
E. coli GC 2235 = experiment: MIC, broth microdilution; conditions: Escherichia coli, GC2235, read-out: MINIMAL INHIBITORY CONCENTRATION MIC, pre-incubated in Water
E. coli GC 4559 = experiment: MIC, broth microdilution; conditions: Escherichia coli, GC4559, read-out: MINIMAL INHIBITORY CONCENTRATION MIC, pre-incubated in Water
Staph. aureus Smith = experiment: In vivo activity (oral, iv; ED50) against Staph. aureus Smith in mice
S. aureus GC 2216 = experiment: MIC, broth microdilution; conditions: Staphylococcus aureus
E. faecalis GC 2242 = experiment: MIC, broth microdilution; conditions: Enterococcus faecalis
E. coli GC 2231 = experiment: MIC, broth microdilution; conditions: Escherichia coli, GC2231, read-out: MINIMAL INHIBITORY CONCENTRATION MIC, pre-incubated in Water
Staph. = experiment: Range of MIC for Staph. strains, including MRSA; conditions: Staphylococcus aureus
E. coli GC 2232 = experiment: MIC, broth microdilution; conditions: Escherichia coli, GC2232, read-out: MINIMAL INHIBITORY CONCENTRATION MIC, pre-incubated in Water
S. pneumoniae* GC 4465 = experiment: MIC, broth microdilution; conditions: for MIC: Streptococcus pneumoniae
E. coli GC 2236 = experiment: MIC, broth microdilution; conditions: Escherichia coli, GC2236, read-out: MINIMAL INHIBITORY CONCENTRATION MIC, pre-incubated in Water
S. pyogenes GC 4563 = experiment: MIC, broth microdilution; conditions: for MIC: Streptococcus pyogenes
S. typhimurium GC 2172 = experiment: MIC, broth microdilution; conditions: for MIC: Salmonella enterica, TYPHIMURIUM
E. faecalis GC 4555 = experiment: MIC, broth microdilution; conditions: for MIC: Enterococcus faecalis
[1] = read-out: MINIMAL INHIBITORY CONCENTRATION MIC, pre-incubated in Mouse Serum
[2] = read-out: MINIMAL INHIBITORY CONCENTRATION MIC, pre-incubated in Water

- MIC (S. agalactiae GC 4564): 8 µg/mL (≈ 10.6 µM)
- MIC (E. coli; 20 h, read-out: Range of MIC, E. coli (Mouse Serum)): 4 to 16 µg/mL (≈ 5.28 to 21.1 µM)
- MIC (E. coli; read-out: Minimum inhibitory concentration (MIC), E. coli (Human Serum)): > 64 µg/mL
- MIC (E. coli; read-out: Minimum inhibitory concentration (MIC), E. coli (water)): > 64 µg/mL
- MIC (E. coli; read-out: Range of MIC, E. coli (Water)): > 64 µg/mL
- MIC (E. coli GC 2234): > 64 µg/mL
- MIC (S. pneumoniae+ GC 4465; [1]): 4 µg/mL (≈ 5.28 µM)
- MIC (S. pneumoniae+ GC 4465; [2]): 8 µg/mL (≈ 10.6 µM)
- MINIMAL INHIBITORY CONCENTRATION MIC (S. pneumoniae+ GC 4465; pre-incubated in Mouse Serum): 8 UG/ML
- MIC (S. aureus GC 4536; GC4536, read-out: MINIMAL INHIBITORY CONCENTRATION MIC, pre-incubated in Mouse Serum): 2 µg/mL (≈ 2.64 µM)
- MIC (S. aureus GC 4536; GC4536, read-out: MINIMAL INHIBITORY CONCENTRATION MIC, pre-incubated in Water): 8 µg/mL (≈ 10.6 µM)
- MINIMAL INHIBITORY CONCENTRATION MIC (S. aureus GC 4536; pre-incubated in Mouse Serum): 4 UG/ML
- MIC (S. aureus GC 6466; GC6466, read-out: MINIMAL INHIBITORY CONCENTRATION MIC, pre-incubated in Mouse Serum): 2 µg/mL (≈ 2.64 µM)
- MIC (S. aureus GC 6466; GC6466, read-out: MINIMAL INHIBITORY CONCENTRATION MIC, pre-incubated in Water): 4 µg/mL (≈ 5.28 µM)
- MINIMAL INHIBITORY CONCENTRATION MIC (S. aureus GC 6466; pre-incubated in Mouse Serum): 4 UG/ML
- MIC (E. faecium GC 4556; GC4556, read-out: MINIMAL INHIBITORY CONCENTRATION MIC, pre-incubated in Mouse Serum): 2 µg/mL (≈ 2.64 µM)
- MIC (E. faecium GC 4556; GC4556, read-out: MINIMAL INHIBITORY CONCENTRATION MIC, pre-incubated in Water): 8 µg/mL (≈ 10.6 µM)
- MINIMAL INHIBITORY CONCENTRATION MIC (E. faecium GC 4556; pre-incubated in Mouse Serum): 4 UG/ML
- MIC (E. coli GC 2235): > 64 µg/mL
- MIC (E. coli GC 4559): > 64 µg/mL
- MIC (S. aureus GC 2216; GC2216, read-out: MINIMAL INHIBITORY CONCENTRATION MIC, pre-incubated in Mouse Serum): 2 µg/mL (≈ 2.64 µM)
- MIC (S. aureus GC 2216; GC2216, read-out: MINIMAL INHIBITORY CONCENTRATION MIC, pre-incubated in Water): 4 µg/mL (≈ 5.28 µM)
- MIC (E. faecalis GC 2242; GC2242, read-out: MINIMAL INHIBITORY CONCENTRATION MIC, pre-incubated in Mouse Serum): 4 µg/mL (≈ 5.28 µM)
- MIC (E. faecalis GC 2242; GC2242, read-out: MINIMAL INHIBITORY CONCENTRATION MIC, pre-incubated in Water): 8 µg/mL (≈ 10.6 µM)
- MIC (E. coli GC 2231): > 64 µg/mL
- MIC (Staph.; MRSA, read-out: Range of MIC, Staph (Mouse Serum)): 2 to 4 µg/mL (≈ 2.64 to 5.28 µM)
- MIC (Staph.; MRSA, read-out: Range of MIC, Staph (Water)): 4 to 8 µg/mL (≈ 5.28 to 10.6 µM)
- MIC (Staph.; read-out: Minimum inhibitory concentration (MIC), Staph (Human Serum)): 2 to 4 µg/mL (≈ 2.64 to 5.28 µM)
- MIC (Staph.; read-out: Minimum inhibitory concentration (MIC), Staph (Water)): 4 to 8 µg/mL (≈ 5.28 to 10.6 µM)
- MIC (E. coli GC 2232): > 64 µg/mL
- MIC (S. pneumoniae* GC 4465; [1]): 2 µg/mL (≈ 2.64 µM)
- MIC (S. pneumoniae* GC 4465; [2]): 4 µg/mL (≈ 5.28 µM)
- MINIMAL INHIBITORY CONCENTRATION MIC (S. pneumoniae* GC 4465; pre-incubated in Mouse Serum): 4 UG/ML
- MIC (E. coli GC 2236): > 64 µg/mL
- MIC (S. pyogenes GC 4563; GC4563, read-out: MINIMAL INHIBITORY CONCENTRATION MIC, pre-incubated in Mouse Serum): 2 µg/mL (≈ 2.64 µM)
- MIC (S. pyogenes GC 4563; GC4563, read-out: MINIMAL INHIBITORY CONCENTRATION MIC, pre-incubated in Water): 4 µg/mL (≈ 5.28 µM)
- MINIMAL INHIBITORY CONCENTRATION MIC (S. pyogenes GC 4563; pre-incubated in Mouse Serum): 4 UG/ML
- MIC (S. typhimurium GC 2172; [1]): 64 µg/mL (≈ 84.5 µM)
- MIC (S. typhimurium GC 2172; [2]): > 64 µg/mL
- MINIMAL INHIBITORY CONCENTRATION MIC (S. typhimurium GC 2172; pre-incubated in Mouse Serum): >64 UG/ML
- MIC (E. faecalis GC 4555; GC4555, read-out: MINIMAL INHIBITORY CONCENTRATION MIC, pre-incubated in Mouse Serum): 2 µg/mL (≈ 2.64 µM)
- MIC (E. faecalis GC 4555; GC4555, read-out: MINIMAL INHIBITORY CONCENTRATION MIC, pre-incubated in Water): 4 µg/mL (≈ 5.28 µM)
- MINIMAL INHIBITORY CONCENTRATION MIC (E. faecalis GC 4555; pre-incubated in Mouse Serum): 4 UG/ML
Structure (SMILES): CN(C)c1cc(NC(=O)CN(C(=O)OCOC(=O)CC(C)(C)C)C(C)(C)C)c(O)c2c1C[C@H]1C[C@H]3[C@H](N(C)C)C(O)=C(C(N)=O)C(=O)[C@@]3(O)C(O)=C1C2=O [Example 42, ({[(2-{[(5aR,6aS,7S,10aS)-9-(aminocarbonyl)-4,7-bis(dimethylamino)-1,8,10a,11-tetrahydroxy-10,12-dioxo-5,5a,6,6a,7,10,10a,12-octahydrotetracen-2-yl]amino}-2-oxoethyl)(tert-butyl)amino]carbonyl}oxy)methyl 3,3-dimethylbutanoate]
- ED50 (Staph. aureus Smith; Staphylococcus aureus, in Mus musculus, iv, read-out: ED50 SIV (Staph aureus Smith)): 1.43 mg/kg
- ED50 (Staph. aureus Smith; Staphylococcus aureus, in Mus musculus, po, read-out: ED50 SOD (Staph aureus Smith)): 5.68 mg/kg
- ED50 (Staph. aureus Smith; Staphylococcus aureus, in Mus musculus, po, read-out: ED50 Staph Smith SOD): 5.68 mg/kg
- ED50 (Staph. aureus Smith; iv, read-out: ED50 Staph Smith SIV): 1.43 mg/kg
